# Test results: US5349070A, “Salicylic acid-maltol conjugates” (priority 1993, dated 1994)
# How the values were obtained:
# [1] = system: Carrageenin-induced edema; assay: Antiinflammatory activity by Carrageenin-induced edema test; type: in vivo, rat (male Sprague Dawley); details: for % Increment of Edema: mean ± S.E.
# Experimental: Animal: Male Sprague Dawley rats weighing approx. 170 g (5 rats as a group). […]
# (§1) Medication: Oral administration.
# The inhibitions of Carrageenin-induced edema by compound A and aspirin was measured according to Winster et al. (Winter, C. A., Risley, E. A. and Nuss, G. W. (1963), J: Pharmaco. Exptl. Therap., 141, 369). Samples were administered orally at 6 hrs and 30 min before Carrageenin injection. Edema was induced with subcutaneous injection of 0.05 ml of 1% Carrageenin in saline solution in a hind paw of rat. Then, the volume of edema was measured at time intervals.
# [2] = system: Malondialdehyde (MDA) Generation in Mouse Liver Homogenate; assay: Inhibition of malondialdehyde (MDA) generation (antioxidant activity), in vitro; type: biochemical, mouse (male ICR)
# Experimental: Animal: male ICR mouse weighing 20-25 g
# 1. Maltol (10% DMF saline)
# 2. Aspirin (10% DMF saline).
# TBA reagents: Thiobarbituric acid (0.3%) and SDS (0.4%) were dissolved in 7.5% acetate buffer (pH 4.0)
# Antioxidant activities were determined following the method of Okawa et al. (Biochemistry (Japan) 1977), 49(8), 829). Mouse livers were homogenized with ten volumes of saline. To 10 ml of homogenate was added 10 ml of the sample solution, and the mixture was incubated at 37° C. for 3 hrs. Then 3.6 ml of TBA reagents were added to the mixture and the resulting mixture was heated at 98° C. for 1 hr. After the temperature was reduced to 24° C., the reaction mixture was extracted with 2 ml of butanol and the butanol phase was separated by centrifugation. The absorbance at 532 nm of the butanol phase was measured.
# Typhoid vaccine pyrogen = assay: Antipyretic activity (typhoid vaccine pyrogen, rectal temperature); type: in vivo, mouse (male ICR); details: oral, mouse, FIG. 3; compound A 160, 500 mg/kg, aspirin 100 mg/kg
# Experimental: Animal: Male ICR mouse weighing 17-21 g (5 mice as a group).
# Sample: Compound A (160 mg/kg, 500 mg/kg in 1% CMC).
# Reference: Aspirin (100 mg/kg in 1% CMC).
# Pyrogen: Typhoid vaccine (0.1 ml/mouse, i.p.).
# Antipyretic activities were measured according to Winter et al. with some modifications (Winter, C. A. et al. (1963), J. Pharmacol Exptl. Therap., 141, […]). Rectal temperature was measured using digitalized thermometer inserted 3 cm deep at one hr intervals. Typhoid vaccine was injected to mouse i.p. at zero time. After 2 hrs, aspirin and sample (compound in Example 1) were orally given to mouse.
# BSA = assay: Protein stabilizing activity (heat denaturation of BSA); type: biochemical; details: 1×10^-3 M in 5% DMF; data not shown
# Experimental: Sample: Compound A (1×10^-3 M in 5% DMF solution
# The protein stabilizng activity of the sample was analyzed as described by Mizushima (Mizushima, Y. (1965), Lancet, 1, 169). Briefly, 2 ml of 0.75% BSA in 0.1M phosphate-buffered saline (pH 5.3) was mixed with 1 ml of appropriately diluted test sample solution. After standing at room temperature for 15 min, the reaction mixture was incubated at 66.5°C. and 0° C. for 3 min and 15 min, respectively. The degree of heat denaturation of BSA was estimated by the turbidity of colloidal precipitate, whose absorbance at 570 nm was measured.
# platelets = assay: Antithrombotic activity (thrombin-induced platelet aggregation); type: cell-based, rat (male Sprague Dawley); details: 1×10^-3 M
# Experimental: Animal: Male Sprague Dawley rate weighing 180-250 g.
# Sample: Compound A (1×10^-3 M) in 5% DMF solution.
# Rats were anaesthetized with ether and 9 volumes of blood were collected by heart puncture with 1 volume of 3.12% sodium citrate. Combined blood samples were centrifuged at 1,200 rpm for 20 min at 4° C. to obtain platelet-rich plasma. Following centrifugation at 3,000 rpm for 10 min at 4° C., the resulting precipitates (platelets) were resuspended in 0.01M phosphate-buffered saline (pH 7.4). To 1 ml of this solution was added 0.1 ml of the sample solution. After 30 min incubation at 37° C., 10 units of thrombin was added and the reaction mixture was incubated for 1 hr.
# [3] = Gastric ulceration experiment; type: in vivo, rat (male Sprague Dawley); details: for Ulcer Index: mean ± S.E.; for gastric ulceration: compound A versus aspirin at four times lower dose
# Experimental: Animal: Male Sprague Dawley rats weighing 160-210 g (6 rats as a group).
# Reference: Aspirin (200 mg/kg in 1% CMC).
# as §1
# Rats were deprived of food but allowed free access to water for 24 hrs (water was removed 2 hrs before experiments). Samples suspended in 1% CMC solution […]. The stomachs were then inflated by injecting 10 ml of 2% formalin through the esophageal orifice and immersed in 2% formalin for 10 min. Subsequently, the stomachs were incised along the greater curvature and the length of each leison in the glandular portion was measured. The sum of the lengths (mm) of all lesions for each rat was used as the ulcer index.
# Bleeding time = type: in vivo; details: for Bleeding Time: in s (unit assumed); for percent increment of bleeding time: P < 0.05
# Experimental: To the experimental groups, equivalent doses of compound A and aspirin were administered separately for 10 days.
# Acute toxicity test = type: in vivo; details: oral, mouse
# [4] = General activities and side effects stated in the description; details: concluding statement
# [5] = background statement; cited from earlier work
# [6] = final concentration 1.3 × 10^-5 M
# [7] = final concentration 2.5 × 10^-3 M
# [8] = final concentration 2.5 × 10^-4 M
# [9] = final concentration 6.3 × 10^-5 M
smiles,measurement,setting,value
"CCCCC1C(=O)N(c2ccccc2)N(c2ccccc2)C1=O [Phenylbutazone, reference compound]",% Increment of Edema,"[1]; 100 mg/kg P.O., 0.5 hr",11.8 ± 6.26%
same,% Increment of Edema,"[1]; 100 mg/kg P.O., 1.5 hr",20.9 ± 6.88%
same,% Increment of Edema,"[1]; 100 mg/kg P.O., 2.5 hr",21.9 ± 9.22%
same,% Increment of Edema,"[1]; 100 mg/kg P.O., 3.5 hr",36.2 ± 14.45%
"Cc1occc(=O)c1O [Maltol, maltol]",% Inhibition of Malondialdehyde (MDA) Generation,[2]; [6],5.2 ± 2.6%
same,% Inhibition of Malondialdehyde (MDA) Generation,[2]; [7],99.4 ± 0.3%
same,% Inhibition of Malondialdehyde (MDA) Generation,[2]; [8],94.8 ± 2.6%
same,% Inhibition of Malondialdehyde (MDA) Generation,[2]; [9],13.4 ± 6.7%
"CC(=O)Oc1ccccc1C(=O)Oc1c(C)occc1=O [Compound A, maltol-acetylsalicylate ester]",% Inhibition of Malondialdehyde (MDA) Generation,[2]; [6],4.3 ± 2.1%
same,% Inhibition of Malondialdehyde (MDA) Generation,[2]; [7],91.9 ± 4.1%
same,% Inhibition of Malondialdehyde (MDA) Generation,[2]; [8],58.9 ± 7.0%
same,% Inhibition of Malondialdehyde (MDA) Generation,[2]; [9],2.3 ± 1.1%
same,antipyretic potency compared to aspirin,Typhoid vaccine pyrogen,five times lower than that of aspirin
same,% Increment of Edema,"[1]; 300 mg/kg P.O., 0.5 hr",46.5 ± 13.98%
same,% Increment of Edema,"[1]; 300 mg/kg P.O., 1.5 hr",51.2 ± 9.47%
same,% Increment of Edema,"[1]; 300 mg/kg P.O., 2.5 hr",56.1 ± 11.50%
same,% Increment of Edema,"[1]; 300 mg/kg P.O., 3.5 hr",69.4 ± 13.89%
same,% Increment of Edema,"[1]; 300 mg/kg P.O., 4.5 hr",81.9 ± 9.96%
same,% Increment of Edema,"[1]; 400 mg/kg P.O., 0.5 hr",20.3 ± 6.85%
same,% Increment of Edema,"[1]; 400 mg/kg P.O., 1.5 hr",33.8 ± 3.19%
same,% Increment of Edema,"[1]; 400 mg/kg P.O., 2.5 hr",50.2 ± 6.43%
same,% Increment of Edema,"[1]; 400 mg/kg P.O., 3.5 hr",58.4 ± 6.09%
same,% Increment of Edema,"[1]; 400 mg/kg P.O., 4.5 hr",66.2 ± 8.52%
same,anti-inflammatory effect,"[1]; doses of 300 and 450 mg/kg, oral",no anti-inflammatory effect
same,protein stabilizing activity,BSA,did not contain protein stabilizing activity
same,antithrombotic activity,platelets,showed antithrombotic activity
same,platelet aggregation,"platelets; 10 units thrombin, naked eye, 1 hr",platelet aggregation was not observed
same,Ulcer Index,[3]; 100 mg/kg P.O.,0 mm
same,Ulcer Index,[3]; 200 mg/kg P.O.,0 mm
same,number of rats that exhibited gastric ulcer,[3]; 800 mg/kg P.O.,1/6
same,Ulcer Index,[3]; 800 mg/kg P.O.,0.7 ± 0.61 mm
same,gastric ulcer,[3]; at 5 times higher dose than aspirin,did not cause gastric ulcer
same,gastric ulceration,[3],did not cause gastric ulceration
same,Bleeding Time,"Bleeding time; 15 mg/kg P.O., day 2",339.6 ± 53.9
same,Bleeding Time,"Bleeding time; 15 mg/kg P.O., day 4",396.9 ± 56.0
same,Bleeding Time,"Bleeding time; 15 mg/kg P.O., day 6",429.4 ± 50.6
same,Bleeding Time,"Bleeding time; 15 mg/kg P.O., day 8",518.3 ± 102.8
same,percent increment of bleeding time,"Bleeding time; 15 mg/kg P.O., day 10",50%
same,Bleeding Time,"Bleeding time; 15 mg/kg P.O., day 10",472.1 ± 57.4
same,percent increment of bleeding time,"Bleeding time; 45 mg/kg P.O., day 10",48%
same,Bleeding Time,"Bleeding time; 45 mg/kg P.O., day 10",467.8 ± 55.9
same,prolongation of the bleeding time,Bleeding time; administered for 10 days,50%
same,LD50,Acute toxicity test; in vivo,2140 mg/kg
same,toxicity,Acute toxicity test,little toxicity
same,side effects,[4],little side effects
"CC(=O)Oc1ccccc1C(=O)O [Aspirin, Acetylsalicylic acid, reference compound]",% Inhibition of Malondialdehyde (MDA) Generation,[2]; [7],8.4 ± 4.2%
same,% Inhibition of Malondialdehyde (MDA) Generation,[2]; [8],0.8 ± 0.4%
same,% Inhibition of Malondialdehyde (MDA) Generation,[2]; [9],4.6 ± 2.3%
same,number of rats that exhibited gastric ulcer,[3]; 200 mg/kg P.O.,5/5
same,Ulcer Index,[3]; 200 mg/kg P.O.,29.3 ± 6.15 mm
same,gastric ulceration,[3],caused ulceration
same,Bleeding Time,"Bleeding time; 15 mg/kg P.O., day 2",353.5 ± 74.7
same,Bleeding Time,"Bleeding time; 15 mg/kg P.O., day 4",372.7 ± 50.1
same,Bleeding Time,"Bleeding time; 15 mg/kg P.O., day 6",516.6 ± 119.4
same,Bleeding Time,"Bleeding time; 15 mg/kg P.O., day 8",493.6 ± 86.6
same,Bleeding Time,"Bleeding time; 15 mg/kg P.O., day 10",441.9 ± 46.2
same,gastric ulceration induced by aspirin,[5],induces gastric ulceration
same,pharmacological activities of aspirin,[5],"antipyretic, antianalgesic, antioxidant and antithromobotic activities"
